Source: ChEMBL document CHEMBL3045885, “Evaluation of antileishmanial activities of triglycerides isolated from roots of Moringa stenopetala” (Med Chem Res, 2013)
Values after ≈ are worked out from the molar mass of the structure shown.

Legend:
Leishmania aethiopica [1] = assay: Antileishmanial activity against promastigote form of Leishmania aethiopica MHOM/ET/82/117-82 […] after 72 hr; type: functional, organism-based; details: MHOM/ET/82/117-82, 72 h
Leishmania aethiopica [2] = assay: Antileishmanial activity against amastigote form of Leishmania aethiopica MHOM/ET/82/117-82 infected in BALB/c mouse peritoneal exudate macrophages after 5 days; type: functional, organism-based; details: MHOM/ET/82/117-82, 120 h

Row | Structure (SMILES) | IC50 (Leishmania aethiopica [1]) [µg/mL] | IC50 (Leishmania aethiopica [2]) [µg/mL]
1 | CCCCC/C=C\C/C=C\CCCCCCCC(=O)OC(COC(=O)CCCCCCC/C=C\CCCCCCCC)COC(=O)CCCCCCC/C=C\CCCCCCCC | 242 (≈ 274 µM) | 26.8 (≈ 30.3 µM)
2 | CCCCCCCCCCCCCCCCOP(=O)([O-])OCC[N+](C)(C)C [MILTEFOSINE] | 0.136 (≈ 0.334 µM) | 0.121 (≈ 0.297 µM)
3 | CCCCC/C=C\C/C=C\CCCCCCCC(=O)OCC(COC(=O)CCCCCCC/C=C\C/C=C\CCCCC)OC(=O)CCCCCCC/C=C\CCCCCCCC | 0.079 (≈ 0.0896 µM) | 40 (≈ 45.4 µM)
4 | C[C@@H]1[C@H](O)[C@@H](C)/C=C/C=C/C=C/C=C/C=C/C=C/C=C/[C@H](O[C@@H]2O[C@H](C)[C@@H](O)[C@H](N)[C@@H]2O)C[C@@H]2O[C@](O)(C[C@@H](O)C[C@@H](O)[C@H](O)CC[C@@H](O)C[C@@H](O)CC(=O)O[C@H]1C)C[C@H](O)[C@H]2C(=O)O [AMPHOTERICIN B] | 0.004 (≈ 0.00433 µM) | 0.032 (≈ 0.0346 µM)
